Values after ≈ are worked out from the molar mass of the structure shown.
Details: buffer; pH 7.4; 200.0 µM

Cc1nc(SCC(=O)N2CCN(c3ccccn3)CC2)c(C#N)c(C)c1C and CCN1CCN(c2oc(/C=C/c3ccccc3)nc2C#N)CC1 are within 1.5-fold of each other in solubility kinetic: 41.8 µg/mL (≈ 110 µM) for the first, 42.4 µg/mL (≈ 137 µM) for the second.

Compared with CNS(=O)(=O)c1cccc(C(=O)OCC(=O)NC2CCCC(C)C2C)c1 (stereo not given), CC1CCCCC1NC(=O)COC(=O)CNC(=O)c1cccc(F)c1 (stereo not given) is 4-fold higher in solubility kinetic: 12.7 µg/mL (≈ 33.2 µM) for the first, 51.2 µg/mL (≈ 146 µM) for the second.

Going from Cc1cc(C(=O)Nc2cccc(C)c2C)c2ccccc2n1 to Cc1ccccc1NC(=O)CC(=O)Nc1ccccc1C, the solubility kinetic rises from 40.1 µg/mL (≈ 138 µM) to > 42.4 µg/mL.

Compared with CC12CCC(C(=O)NCc3ccccc3Cl)(OC1=O)C2(C)C (stereo not given), Cc1c(Cl)cccc1NC(=O)CNC(=O)c1ccco1 is lower in solubility kinetic: > 48.3 µg/mL for the first, 38.2 µg/mL (≈ 130 µM) for the second.

Compared with Cc1cccc(C)c1N=C1C(=O)Nc2ccccc21, Cc1c(C(=O)N(C)Cc2ccccc2)oc2c(Cl)cccc12 is 3.7-fold lower in solubility kinetic: 31.2 µg/mL (≈ 125 µM) for the first, 8.4 µg/mL (≈ 26.8 µM) for the second.

CCN1C(=O)c2ccc(C(=O)Nc3c(C)cc(C)cc3C)cc2C1=O and Cc1cc(C(=O)Nc2ccc3c(c2)OCCO3)ccc1[N+](=O)[O-] cannot be ordered by solubility kinetic: < 0.4 µg/mL for the first, < 0.3 µg/mL for the second.

Compared with CSc1nc(SC(C)C(=O)O)c2c3c(sc2n1)COC(C)(C)C3 (stereo not given), CCCc1nc2sc3c(c2c(=O)[nH]1)CCCC3 is lower in solubility kinetic: > 55.6 µg/mL for the first, 1.3 µg/mL (≈ 5.23 µM) for the second.

Fc1c(F)c(F)c(NC2=NCCCCC2)c(F)c1F and Cl.O=C(CN1CCCCC1)NC1CCc2cc3c(cc21)CCC3 (stereo not given) cannot be ordered by solubility kinetic: > 41.7 µg/mL for the first, 45.6 µg/mL for the second.

First: C#CC[N+]1(C)C2CCC1CC(O)C2.[Br-] (stereo not given)
Second: COc1ccccc1NC(=S)NC1CC2CCC1C2 (stereo not given)
The solubility kinetic of the first is lower: 33.7 µg/mL for the first, > 41.5 µg/mL for the second.

Going from CCCCn1c(N)c(N(CCC(C)C)C(=O)COC(=O)/C=C/c2ccc(F)cc2)c(=O)[nH]c1=O to CCC(C)n1c(O)c(C=NCCc2ccccc2)c(=O)[nH]c1=S (stereo not given), the solubility kinetic falls from 8.5 µg/mL (≈ 17.9 µM) to 5.1 µg/mL (≈ 15.4 µM) (1.7-fold).

Going from CCN(c1cccc(C)c1)S(=O)(=O)c1csc(C(N)=O)c1 to O=[N+]([O-])c1cccc(S(=O)(=O)NCc2ccccn2)c1, the solubility kinetic falls from > 48.7 µg/mL to 41.2 µg/mL (≈ 140 µM).

Compared with O=C(CCc1nc2ccccc2s1)NC1CCOC1=O (stereo not given), COc1ccc2nc(NC(=O)Nc3ccccc3OC)sc2c1 is lower in solubility kinetic: > 43.6 µg/mL for the first, 1.4 µg/mL (≈ 4.25 µM) for the second.

First: COCc1nc2ccccc2n1CCc1ccccc1
Second: O=C1C(=O)N(CCCc2ccccc2)c2ccccc21
The solubility kinetic of the first is higher: > 40 µg/mL for the first, 32.5 µg/mL (≈ 122 µM) for the second.

Compared with O=C1CSC(c2ccncc2)N1Cc1ccc(F)cc1 (stereo not given), N#Cc1c(-c2ccc(F)cc2)c2c([nH]c1=O)-c1ccccc1OC2 is lower in solubility kinetic: > 43.3 µg/mL for the first, 1.2 µg/mL (≈ 3.77 µM) for the second.

First: Cc1ccc(N2CN(CCc3ccccc3)CNC2=S)cc1
Second: Cc1cccc(-c2cnn(-c3ccccc3)c2N)c1
The solubility kinetic of the first is lower: 6.5 µg/mL (≈ 20.9 µM) for the first, > 37.4 µg/mL for the second.

CN(C)/C=N/C(=S)Nc1ccccc1 and CCC(=O)Nc1ccc(/C=C(\C(C)=O)C(=O)c2ccccc2)cc1 cannot be ordered by solubility kinetic: > 31.1 µg/mL for the first, > 48.2 µg/mL for the second.

CC(C)c1cccc(C(C)C)c1NC(=O)CN1CCCC1 and Cc1ccc(-c2csc(NC(=O)CN3CCOCC3)n2)cc1 cannot be ordered by solubility kinetic: > 43.3 µg/mL for the first, > 47.6 µg/mL for the second.

First: OC(COc1ccc2c(c1)OCO2)CN1CCCCC1 (stereo not given)
Second: O=C(c1ccccc1)N1CCN(C(=O)c2ccc3c(c2)OCO3)CC1
The solubility kinetic of the first is lower: 32.5 µg/mL (≈ 116 µM) for the first, > 50.8 µg/mL for the second.

Going from CC(C)(C)C(=O)CSc1nc(N)cc(=O)[nH]1 to CCOc1ccc(NC(=O)COC(=O)Cn2nc(C)c([N+](=O)[O-])c2C)cc1OCC, the solubility kinetic rises from 33.1 µg/mL (≈ 137 µM) to > 63.1 µg/mL.

Compared with CCOc1ccc(NC(=O)NC2CCCCCCC2)cc1, O=C(COC(=O)/C=C/c1ccccc1[N+](=O)[O-])NC(=O)NC1CCCC1 is 8.6-fold higher in solubility kinetic: 0.9 µg/mL (≈ 3.1 µM) for the first, 7.7 µg/mL (≈ 21.3 µM) for the second.

Compared with O=C(Nc1cccc(NC(=O)c2ccccc2)n1)c1ccccc1, Cc1ccc(NC(=O)c2ccc(C(=O)c3ccccc3)cc2)nc1 is 3.3-fold lower in solubility kinetic: 16.8 µg/mL (≈ 52.9 µM) for the first, 5.1 µg/mL (≈ 16.1 µM) for the second.

Compared with Cc1ccc(S(=O)(=O)N2CCC(C(=O)NCc3ccccc3CN3CCCC3)CC2)cc1, Cc1ccc(NC(=O)c2ccc([N+](=O)[O-])s2)cc1S(=O)(=O)N1CCOCC1 is 21-fold lower in solubility kinetic: 66.3 µg/mL (≈ 146 µM) for the first, 3.1 µg/mL (≈ 7.53 µM) for the second.

Compared with COCC(C)N1CC(O)=C(c2nc(-c3ccc(Cl)cc3)cs2)C1=N (stereo not given), Clc1ccc(-c2csc(-c3cccnc3)n2)s1 is 1.9-fold lower in solubility kinetic: 1.3 µg/mL (≈ 3.57 µM) for the first, 0.7 µg/mL (≈ 2.51 µM) for the second.

First: O=C(Cn1cccc1C(=O)c1ccccc1)NCc1cccc(Cl)c1
Second: COc1ccc(CNC(=O)Cc2cn(C)c3ccccc23)c(OC)c1
The solubility kinetic of the first is lower: < 0.4 µg/mL for the first, > 50.8 µg/mL for the second.

Going from O=C(NCc1ccco1)c1ccc2c(c1)OCCO2 to CCCCNC(=O)c1cc(-c2ccc3c(c2)OCO3)on1, the solubility kinetic falls from 37.6 µg/mL (≈ 145 µM) to 0.3 µg/mL (≈ 1.04 µM) (130-fold).

First: CCOC(=O)C1=CCN(Cc2ccccc2)CC1.Cl
Second: CCN(CC)C(=O)c1sc2nc(-c3ccccc3)ccc2c1N
The solubility kinetic of the first is 1.9-fold higher: 37.8 µg/mL for the first, 19.8 µg/mL (≈ 60.8 µM) for the second.

Going from CCn1cnc2cc(NCc3ccccc3Cl)ccc21 to O=C(NC(=S)Nc1ccccc1Cl)c1cncc(Br)c1, the solubility kinetic falls from > 42.9 µg/mL to 1.2 µg/mL (≈ 3.24 µM).

COc1cc(C(=O)NC(c2ccccc2)c2ccccc2)cc(OC)c1OC and COc1ccc(CC(=O)NC(C)c2ccc3ccccc3c2)cc1 (stereo not given) cannot be ordered by solubility kinetic: < 0.8 µg/mL for the first, 0.7 µg/mL (≈ 2.19 µM) for the second.

Compared with COc1ccc(C(=O)C(C)OC(=O)c2sc(C)nc2C)cc1 (stereo not given), N#Cc1nc(-c2ccc(Cl)cc2)oc1NCC1CCCO1 (stereo not given) is 14-fold lower in solubility kinetic: 35.8 µg/mL (≈ 112 µM) for the first, 2.5 µg/mL (≈ 8.23 µM) for the second.

Going from CCCCS(=O)(=O)N1CCCC(C(=O)N2CCOCC2)C1 (stereo not given) to CC(C)C(O)(C#CCN1CCCCCC1)c1ccccc1.Cl (stereo not given), the solubility kinetic rises from 42.4 µg/mL (≈ 133 µM) to > 48.3 µg/mL.
